We go through 22 compounds from patent US9498483B2, “2,3,5-trisubstituted thiophene compounds and uses thereof” (priority 2010, dated 2016).

SMILES strings stand for the structures.

One test addresses T1, HCV polymerase (Hepatitis C virus genotype 1b, UniProt Q9WMX2).
T1 construct: (His)6 (C); made in house; host or cells: XL-1 cells (E. coli, by own knowledge)
Kind of test: Polymerase assay of Biological Example 1 (IC50 values of Table 3). It is filed as biochemical. Conditions: IC50 values of Table 3, polymerase assay of Biological Example 1; read-out: NS5B-enzyme3.

The test system of test [1] is HCV replicon I389luc-ubi-neo/NS3-3′/ET in ET (Huh-lucubineo-ET) cells. Kind of test: Replicon assay (Biological Example 2), luciferase readout. It is filed as cell-based. Conditions: Hepatitis C virus. In short, it runs like this: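 EC50 values come from Hill fits of % inhibition of replicon-driven firefly luciferase, relative to no-compound wells. Compounds were serially diluted (10 points, 3-fold, 0.1 nM–50 μM final, 0.5% DMSO) onto ET replicon cells and read after 48 h.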
(In general: A replicon is a self-replicating genome or part of one, used to study replication in cells.)

[2] abbreviates: ET cells, luciferase activity 48 hours after compound.

Take `CN(C)C1CCCN(c2ccc(S(=O)(=O)N3CC(=O)N(c4cc(-c5ccccc5)sc4C(=O)O)[C@H](C4CCCCC4)C3)cn2)C1` (stereo partly drawn) [Compound 155, 3-[(R)-2-Cyclohexyl-4-(3-dimethylamino-3,4,5,6-tetrahydro-2H-[1,2′]bipyridinyl-5′-sulfonyl)-6-oxo-piperazin-1-yl]-5-phenyl-thiophene-2-carboxylic acid]: the figures for the IC50 (on HCV polymerase; in test [1] (setting [2])) were 3 nM and not above 100 nM, respectively.

For `CN(C)[C@H]1CCN(c2ccc(S(=O)(=O)N3CC(=O)N(c4cc(-c5ccccc5)sc4C(=O)O)[C@H](C4CCCCC4)C3)cn2)C1` [Compound 156, 3-{(R)-2-Cyclohexyl-4-[6-((S)-3-dimethylamino-pyrrolidin-1-yl)-pyridine-3-sulfonyl]-6-oxo-piperazin-1-yl}-5-phenyl-thiophene-2-carboxylic acid], the IC50 at HCV polymerase is 1 nM; in test [1] (setting [2]), not above 100 nM.

With `O=C(O)c1sc(-c2ccccc2)cc1N1C(=O)CN(S(=O)(=O)c2ccc(N3CCN4CCCC4C3)nc2)C[C@H]1C1CCCCC1` (stereo partly drawn) [Compound 157, 3-{(R)-2-Cyclohexyl-4-[6-(hexahydro-pyrrolo[1,2-a]pyrazin-2-yl)-pyridine-3-sulfonyl]-6-oxo-piperazin-1-yl}-5-phenyl-thiophene-2-carboxylic acid], the IC50 on HCV polymerase is 1 nM; in test [1] (setting [2]), not above 100 nM.

With `CC(C)(C)OC(=O)N[C@H]1CCCN(c2ccc(S(=O)(=O)N3CC(=O)N(c4cc(-c5ccccc5)sc4C(=O)O)[C@H](C4CCCCC4)C3)cn2)C1` [Compound 158, 3-[(R)-4-((S)-3-tert-Butoxycarbonylamino-3,4,5,6-tetrahydro-2H-[1,2′]bipyridinyl-5′-sulfonyl)-2-cyclohexyl-6-oxo-piperazin-1-yl]-5-phenyl-thiophene-2-carboxylic acid], the IC50 at HCV polymerase was 2 nM; in test [1] (setting [2]) it was not above 100 nM.

`CC(C)(C)OC(=O)N[C@H]1CCCN(c2ccc(S(=O)(=O)N3CC(=O)N(c4cc(-c5ccccc5)sc4C(=O)O)[C@H](C4CCCCC4)C3)cn2)C1` [Compound 159, 3-[(R)-4-((S)-3-tert-Butoxycarbonyl-amino-3,4,5,6-tetrahydro-2H-[1,2′]bipyridinyl-5′-sulfonyl)-2-cyclohexyl-6-oxo-piperazin-1-yl]-5-phenyl-thiophene-2-carboxylic acid]: the IC50 on HCV polymerase is 3 nM; in test [1] (between 100 nM and 5.0 uM), 100 to 5000 nM.

Regarding `CC(C)N1CCN(c2ccc(S(=O)(=O)N3CC(=O)N(c4cc(-c5ccccc5)sc4C(=O)O)[C@H](C4CCCCC4)C3)cn2)CC1` [Compound 160, 3-{(R)-2-Cyclohexyl-4-[6-(4-isopropyl-piperazin-1-yl)-pyridine-3-sulfonyl]-6-oxo-piperazin-1-yl}-5-phenyl-thiophene-2-carboxylic acid], the IC50 is 1 nM at HCV polymerase and not above 100 nM in test [1] (setting [2]).

Turning to `CC(C)(C)OC(=O)N1CCN(c2ccc(S(=O)(=O)N3CC(=O)N(c4cc(-c5ccccc5)sc4C(=O)O)[C@H](C4CCCCC4)C3)cn2)C[C@@H]1CO` [Compound 161, (R)-4-{5-[(R)-4-(2-Carboxy-5-phenyl-thiophen-3-yl)-3-cyclohexyl-5-oxo-piperazine-1-sulfonyl]-pyridin-2-yl}-2-hydroxymethyl-piperazine-1-carboxylic acid tert-butyl ester], the values for the IC50 (on HCV polymerase; in test [1] (setting [2])) were 1 nM and not above 100 nM, respectively.

As to `C[C@H]1CN(c2ccc(S(=O)(=O)N3CC(=O)N(c4cc(-c5ccccc5)sc4C(=O)O)[C@H](C4CCCCC4)C3)cn2)CCN1C(=O)OC(C)(C)C` [Compound 162, (S)-4-{5-[(R)-4-(2-Carboxy-5-phenyl-thiophen-3-yl)-3-cyclohexyl-5-oxo-piperazine-1-sulfonyl]-pyridin-2-yl}-2-methyl-piperazine-1-carboxylic acid tert-butyl ester], the IC50 was 2 nM on HCV polymerase and not above 100 nM in test [1] (setting [2]).

With `CN(C)[C@@H]1CCN(c2ccc(S(=O)(=O)N3CC(=O)N(c4cc(-c5ccccc5)sc4C(=O)O)[C@H](C4CCCCC4)C3)cn2)C1` [Compound 163, 3-{(R)-2-Cyclohexyl-4-[6-((R)-3-dimethylamino-pyrrolidin-1-yl)-pyridine-3-sulfonyl]-6-oxo-piperazin-1-yl}-5-phenyl-thiophene-2-carboxylic acid], the IC50 is 1 nM at HCV polymerase and not above 100 nM in test [1] (setting [2]).

Regarding `C[C@@H]1CC[C@H](C)N1c1ccc(S(=O)(=O)N2CC(=O)N(c3cc(-c4ccccc4)sc3C(=O)O)[C@H](C3CCCCC3)C2)cn1` [Compound 164, 3-{(R)-2-Cyclohexyl-4-[6-((2S,5R)-2,5-dimethyl-pyrrolidin-1-yl)-pyridine-3-sulfonyl]-6-oxo-piperazin-1-yl}-5-phenyl-thiophene-2-carboxylic acid], the IC50 was 1 nM at HCV polymerase and not above 100 nM in test [1] (setting [2]).

Take `CC(C)(C)OC(=O)N[C@H]1CCN(c2ccc(S(=O)(=O)N3CC(=O)N(c4cc(-c5ccccc5)sc4C(=O)O)[C@H](C4CCCCC4)C3)cn2)C1` [Compound 165, 3-{(R)-4-[6-((S)-3-tert-Butoxycarbonylamino-pyrrolidin-1-yl)-pyridine-3-sulfonyl]-2-cyclohexyl-6-oxo-piperazin-1-yl}-5-phenyl-thiophene-2-carboxylic acid]: the IC50 is 2 nM at HCV polymerase and not above 100 nM in test [1] (setting [2]).

Regarding `Cc1ccc(S(=O)(=O)N2CC(=O)N(c3cc(C#CC(C)(C)C)sc3C(=O)O)C(C3CCCCC3)C2)cc1` (centres unmarked) [Compound 166, 3-[2-Cyclohexyl-6-oxo-4-(toluene-4-sulfonyl)-piperazin-1-yl]-5-(3,3-dimethyl-but-1-ynyl)-thiophene-2-carboxylic acid], the figures for the IC50 (at HCV polymerase; in test [1] (setting [2])) were 982 nM and not below 5000 nM, respectively.

Consider `C[C@@H]1CN(c2ccc(S(=O)(=O)N3CC(=O)N(c4cc(-c5ccccc5)sc4C(=O)O)[C@H](C4CCCCC4)C3)cn2)C[C@H](C)O1` [Compound 167, 3-{(R)-2-Cyclohexyl-4-[6-((2R,6S)-2,6-dimethyl-morpholin-4-yl)-pyridine-3-sulfonyl]-6-oxo-piperazin-1-yl}-5-phenyl-thiophene-2-carboxylic acid], for which the IC50 on HCV polymerase was 3.5 nM; in test [1] (setting [2]) it was not above 100 nM.

As for `CC(C)(C)C#Cc1cc(N2C(=O)CN(S(=O)(=O)c3ccc(N4CCOCC4)nc3)CC2C2CCCCC2)c(C(=O)O)s1` (centres unmarked) [Compound 168, 3-[2-Cyclohexyl-4-(6-morpholin-4-yl-pyridine-3-sulfonyl)-6-oxo-piperazin-1-yl]-5-(3,3-dimethyl-but-1-ynyl)-thiophene-2-carboxylic acid], the IC50 on HCV polymerase is 3820 nM; in test [1] (setting [2]), not above 100 nM.

In the case of `O=C(O)c1sc(-c2ccccc2)cc1N1C(=O)CN(S(=O)(=O)c2cnc(N3CCCC3)c(Cl)c2)C[C@H]1C1CCCCC1` [Compound 169], the IC50 is 3 nM on HCV polymerase and not above 100 nM in test [1] (setting [2]).

Turning to `C[C@@H]1CCCN1c1ncc(S(=O)(=O)N2CC(=O)N(c3cc(-c4ccccc4)sc3C(=O)O)[C@H](C3CCCCC3)C2)cc1Cl` [Compound 170, 3-{(R)-4-[5-Chloro-6-((R)-2-methyl-pyrrolidin-1-yl)-pyridine-3-sulfonyl]-2-cyclohexyl-6-oxo-piperazin-1-yl}-5-phenyl-thiophene-2-carboxylic acid], the IC50 on HCV polymerase was 4 nM; in test [1] (setting [2]), not above 100 nM.

On to `COC[C@@H]1CCCN1c1ccc(S(=O)(=O)N2CC(=O)N(c3cc(-c4ccccc4)sc3C(=O)O)[C@H](C3CCCCC3)C2)cn1` [Compound 171, 3-{(R)-2-Cyclohexyl-4-[6-((S)-2-methoxymethyl-pyrrolidin-1-yl)-pyridine-3-sulfonyl]-6-oxo-piperazin-1-yl}-5-phenyl-thiophene-2-carboxylic acid], for which the IC50 at HCV polymerase is 2 nM; in test [1] (setting [2]), not above 100 nM.

Regarding `Cc1cc(S(=O)(=O)N2CC(=O)N(c3cc(-c4ccccc4)sc3C(=O)O)[C@H](C3CCCCC3)C2)cnc1N1CCCC1` [Compound 172, 3-[(R)-2-Cyclohexyl-4-(5-methyl-6-pyrrolidin-1-yl-pyridine-3-sulfonyl)-6-oxo-piperazin-1-yl]-5-phenyl-thiophene-2-carboxylic acid], the IC50 at HCV polymerase was 1.2 nM; in test [1] (setting [2]), not above 100 nM.

On to `Cc1cc(S(=O)(=O)N2CC(=O)N(c3cc(-c4ccccc4)sc3C(=O)O)[C@H](C3CCCCC3)C2)cnc1N1CCC[C@H]1C` [Compound 173, 3-{(R)-2-Cyclohexyl-4-[5-methyl-6-((R)-2-methyl-pyrrolidin-1-yl)-pyridine-3-sulfonyl]-6-oxo-piperazin-1-yl}-5-phenyl-thiophene-2-carboxylic acid], for which the IC50 is 1 nM on HCV polymerase and not above 100 nM in test [1] (setting [2]).

As for `Cc1ccc(CN2CC(=O)N(c3cc(C#CC(C)(C)C)sc3C(=O)O)C(C3CCCCC3)C2)cc1` (centres unmarked) [Compound 174, 3-[2-Cyclohexyl-4-(4-methyl-benzyl)-6-oxo-piperazin-1-yl]-5-(3,3-dimethyl-but-1-ynyl)-thiophene-2-carboxylic acid], the IC50 was 5110 nM at HCV polymerase and not below 5000 nM in test [1] (setting [2]).

On to `CC(C)(C)C#Cc1cc(N2C(=O)CNCC2C2CCCCC2)c(C(=O)O)s1` (centres unmarked) [Compound 175, 3-(2-Cyclohexyl-6-oxo-piperazin-1-yl)-5-(3,3-dimethyl-but-1-ynyl)-thiophene-2-carboxylic acid], for which the IC50 is more than 10000 nM at HCV polymerase and not below 5000 nM in test [1] (setting [2]).

In the case of `CC(C)c1ccc(S(=O)(=O)N2CC(=O)N(c3cc(C#CC(C)(C)C)sc3C(=O)O)[C@H](C3CCCCC3)C2)cc1` [Compound 176, 3-[(R)-2-Cyclohexyl-4-(4-isopropyl-benzenesulfonyl)-6-oxo-piperazin-1-yl]-5-(3,3-dimethyl-but-1-ynyl)-thiophene-2-carboxylic acid], the results for the IC50 (at HCV polymerase; in test [1] (setting [2])) were 1410 nM and not above 100 nM, respectively.
